# “Also recorded” adds a separate entry of the source.
# Columns and labels:
# [1] = test system: primary bone marrow-derived dendritic cells; assay: In vitro stimulation of primary bone marrow-derived murine dendritic cells, surface markers by flow cytometry; type: cell-based, BALB/c mice; conditions: CD11c+-gated DC, 50 ng/ml, 16 or 40 h pre-treatment
# Description: FIG. 1: FIGS. 1A-1C show the results for In vitro studies using primary dendritic cells. Primary bone marrow-derived dendritic cell cultures were obtained from BALB/c mice by in vitro maturation of precursors using recombinant GM-CSF (5×10^4 U/ml). Mature dendritic cells were stimulated with 10 ng/ml of E. coli lypopolysaccharide (LPS) or 50 and 100 ng/ml of BPPcysGlyc4armPEG and BPPcysAda, respectively. Then, cells were double-labeled with antibodies specific for CD11c (dendritic cell marker) in combination with anti-CD40, anti-CD54, anti-CD80, anti-CD86, anti-MHC class 1, or anti-MHC class 11 antibodies. The expression of CD40, CD80, CD54, CD86, anti-MHC class 1, and MHC class 11 in CD11c-gated cells were analyzed by flow cytometry.
# Experimental protocol: primary bone marrow-derived dendritic cell cultures were obtained from BALB/c mice following in vitro maturation of precursors in the presence of recombinant GM-CSF (5×10^4 U/ml), according to established protocols. Mature dendritic cells were stimulated with 10 ng/ml of E. coli lypopolysaccharide (LPS) or 5 ng/ml of BPPcysGlyc4armPEG, after 12, 24 and/or 48 h stimulation cells were analyzed by flow cytometry to assess the expression of surface markers which are relevant for their antigen presentation capacity.
# In order to identify compounds which may have potential as adjuvants for in vivo applications in the vaccinology field, a first in vitro screening based on the used of primary cultures of bone marrow-derived dendritic cells was established. Dendritic cells were selected since they represent the most efficient antigen presenting cells and they play a key role by primary immune responses. In fact, they are the only cell type able to activate resting T cells initiating primary immune responses in vivo. Thus, dendritic cell cultures were treated with the tested moieties or LPS, which was used as a positive control. At different time intervals, samples were taken, stained with fluorescent-labeled antibodies specific for cellular markers critical for the antigen presenting capacities of dendritic cells, and analyzed by flow cytometry.
# To test the stimulatory capacity of BPPCysAda on maturation and activation of bone marrow-derived DC, immature DC's were stimulated in vitro with BPPCysAda. Surface markers on CD11c+-gated DC were investigated by FACS analysis after 16 or 40 h pre-treatment.
# [2] = test system: β-gal antigen-specific IgG isotypes; assay: β-gal-specific IgG isotypes in sera of immunized mice (isotype ELISA); type: in vivo
# Description: FIG. 8: FIG. 8 provides the analysis of beta-Gal specific IgG isotypes in sera of immunized mice. Anti-beta-Gal specific IgG isotypes of the groups immunized with PBS, (control) beta-Gal+either BPPcysGlyc4armPEG or BPPcysPEG (FIG. 8A) or BPPcysAda or Ada alone (FIG. 8B), or beta-Gal alone of mice immunized by the i.n. or s.c. route were determined by ELISA. Results are expressed as end point titers. IgG titers represent the mean of five animals per experimental group. Differences were statistically significant at p<0.05 (*) with respect to mice receiving antigen alone. One representative out of four independent experiments is shown. SEM is indicated by vertical lines.
# Isotyp ELISA: 96-well Nunc-Immuno MaxiSorp assay plates (Nunc, Roskilde, Denmark) were coated with 100 μl of β-gal (Boehringer, Mannheim, Germany) at 5 μg/ml in 0.05 M carbonate buffer (pH 8.2) per well. Serial two-fold dilutions of sera or lavages in PBS with 1% BSA and 0.05% Tween 20 were added (100 μl/well), and plates incubated for 2 h at 37° C. After washing, biotin-conjugated rat anti-mouse IgG1 or IgG2a (Pharmingen, Hamburg, Germany) were added to determine IgG subclasses. Plates were incubated for an additional 1 h at 37° C. After four washes, 100 μl of peroxidase-conjugated streptavidin (Pharmingen) was added to cells and plates incubated at 37° C. for 30 min. After four washes, reactions were developed with ABTS in 0.1 M citrate-phosphate buffer (pH 4.35) containing 0.01% H2O2. To determine the concentration of IgG subclasses in serum, standard curves were obtained by coating the wells with an isotype-specific goat anti-mouse IgG, and then by incubating with purified mouse IgG1 or IgG2a antibodies (Dianova, Hamburg, Germany).
# spleen cells = assay: Cytokines secreted by in vitro re-stimulated spleen cells of immunized mice (cytometric bead array); type: in vivo
# Description: Cytokines secreted by in vitro re-stimulated spleen cells were determined in immunized mice by CBA. Results are expressed as cytokine concentration ratios (IL-10 the most prominent detected cytokine) (B) and (D) and the stimulation index (A) and (C).
# Cytometric Bead Array: Culture supernatants from proliferating cells were collected on days 2 and 4, and stored at −70° C. Determinations of IFN-γ, TNFα, IL-2, IL-4, IL-5, IL-6, IL-10 and IL-12 were performed by cytometric bead array analysis using the commercial kit from BD, according to the manufacturer's instructions. A standard curve was generated for each cytokine by using the corresponding recombinant murine cytokines (Pharmingen). Probes were incubated at room temperature for additional 2 h. The probes were then analyzed by flow cytometry as described by the protocol of BD.
# To characterize the type of Th response stimulated following immunization, the content of IFN-γ, IL-2, IL-4, IL-5, IL-6, IL-10, IL-12 and TNFα was measured in supernatants from in vitro re-stimulated spleen cells (FIG. 7). […] In fact, the strong stimulation of IL-10 secretion is congruent with the role played by this cytokine in the inhibition of cytokine synthesis by Th1 cells, the enhancement of B cells proliferation and the stimulation of IgA production.
# CD8+ T cells = assay: IFNγ-producing CD8+ T cells after stimulating splenocytes with MHC cl. I restricted β-Gal or OVA peptides; type: in vivo; conditions: vs β-Gal or OVA alone-treated groups; intranasal, subcutaneous or intramuscular route (not shown)
# Description: To assess the epitope-specific cellular immune response induced by the co-administration of BPPCysAda via intranasal, subcutaneous or intramuscular route, IFNγ-producing CD8+ T cells were analyzed after stimulating splenocytes with the MHC cl. I restricted β-Gal (TPHPARIGL) or OVA ([…]) peptides.
# [3] = supernatants of in vitro re-stimulated spleen cells
compound,measurement,setting,value
"CCCCCCCCCCCCCCCC(=O)OCC(CSC[C@H](N)C(=O)N[C@H]1[C@@H](O)[C@H](n2cnc3c(N)ncnc32)O[C@@H]1CO)OC(=O)CCCCCCCCCCCCCCC (single isomer, unassigned) [BPPcysAda, S-[2,3-bis(palmitoyloxy)-(2S or 2R)-propyl]-L-cysteinylcarboxy-3′Amino-3′-deoxyadenosine]",expression of MHC class I and II molecules,[1],increased expression
same,expression of the adhesion molecule ICAM-1 (CD54),[1],enhanced expression
same,expression of the co-stimulatory molecule CD86,[1],up-regulated
same,"antigen specific antibodies of the IgG1 subtype, intranasal",[2]; intranasal administration,significantly enhances; also recorded: strongly increased
same,"antigen specific antibodies of the IgG2a isotype, intranasal",[2]; intranasal administration,significantly enhances; also recorded: strongly increased
same,"expression of the IgG1 isotype, subcutaneous",[2]; subcutaneous administration,strongly increased
same,"expression of the IgG2a isotype, subcutaneous",[2]; subcutaneous administration,strongly increased
same,IL-4 levels,"spleen cells; all BPPcysAda co-administered groups, intranasal",induced
same,type of immune response induced,spleen cells; mucosal and parenteral co-administration,Th2 dominated immune response
same,IFNγ secretion,spleen cells; [3],weaker increase; also recorded: minor secretion
same,IL-2 secretion,spleen cells; [3],induced; also recorded: weaker increase; also recorded: minor secretion
same,IL-6 secretion,spleen cells; [3],weaker increase
same,IL-10 levels,spleen cells; [3],significantly increased
same,TNFα secretion,spleen cells; [3],weaker increase
same,number of IFNγ-secreting CD8+ T cells,CD8+ T cells,significantly decreased
